{
  "source": "patent US20160297851A1",
  "about": "“BROAD SPECTRUM […]” (priority 2012, published 2016)",
  "key": {"Rhodococcus erythropolis": {"tested_on": "Rhodococcus erythropolis", "experiment": "microbe, parasite or virus in culture", "type": "cell-based"}, "[1]": {"target": "truncated wild type E. coli SPase (Escherichia coli, UniProt P00803)", "experiment": "Equilibrium binding, arylomycin fluorescence", "conditions": "micelles; average of three independent experiments"}, "[2]": {"target": "full-length P29S mutant S. aureus SPase (Ser-variant) (Staphylococcus aureus, UniProt P0A070, P29S)", "experiment": "Equilibrium binding, arylomycin fluorescence"}, "Chlamydia trachomatis": {"tested_on": "Chlamydia trachomatis", "experiment": "microbe, parasite or virus in culture", "type": "cell-based", "conditions": "eradication from human HeLa 229 cells, 24 hours"}, "[3]": {"tested_on": "Staphylococcus haemolyticus", "experiment": "microbe, parasite or virus in culture", "type": "cell-based"}, "[4]": {"tested_on": "Lactobacillus plantarum ATCC 8014", "experiment": "microbe, parasite or virus in culture", "type": "cell-based", "conditions": "Lactiplantibacillus plantarum, ATCC8014"}, "Enterococcus faecalis": {"tested_on": "Enterococcus faecalis", "experiment": "microbe, parasite or virus in culture", "type": "cell-based"}, "[5]": {"tested_on": "Brevibacillus brevis ATCC 8246", "experiment": "microbe, parasite or virus in culture", "type": "cell-based", "conditions": "ATCC8246"}, "[6]": {"tested_on": "Corynebacterium glutamicum DSM 44475", "experiment": "microbe, parasite or virus in culture", "type": "cell-based", "conditions": "DSM44475"}, "[7]": {"tested_on": "wild type P. aeruginosa PAO1", "experiment": "microbe, parasite or virus in culture", "type": "cell-based, Pseudomonas aeruginosa"}, "[8]": {"tested_on": "E. coli strains harboring the indicated amino acid at SPase residue 84", "experiment": "microbe, parasite or virus in culture", "type": "cell-based", "conditions": "Escherichia coli"}, "[9]": {"tested_on": "lepB(P84L) E. coli MG1655", "experiment": "microbe, parasite or virus in culture", "type": "cell-based, Escherichia coli", "conditions": "Table 3, P3 position derivatives; unit not given"}, "S. aureus COL": {"tested_on": "S. aureus COL", "experiment": "microbe, parasite or virus in culture", "type": "cell-based", "conditions": "Staphylococcus aureus"}, "[10]": {"tested_on": "Corynebacterium efficiens DSM 44549", "experiment": "microbe, parasite or virus in culture", "type": "cell-based"}, "Clostridium perfringens": {"tested_on": "Clostridium perfringens", "experiment": "microbe, parasite or virus in culture", "type": "cell-based"}, "Prevotella copris": {"tested_on": "Prevotella copris", "experiment": "microbe, parasite or virus in culture", "type": "cell-based"}, "[11]": {"tested_on": "lepB(P29S) S. aureus 8325", "experiment": "microbe, parasite or virus in culture", "type": "cell-based, Staphylococcus aureus", "conditions": "Table 3, P3 position derivatives; unit not given"}, "[12]": {"tested_on": "wild type S. epidermidis RP62A", "experiment": "microbe, parasite or virus in culture", "type": "cell-based, Staphylococcus epidermidis", "conditions": "for MIC: Sensitive strain (SPase without the resistance-conferring Pro)"}, "[13]": {"tested_on": "Streptococcus pyogenes M1-5448", "experiment": "microbe, parasite or virus in culture", "type": "cell-based"}, "[14]": {"tested_on": "Lactobacillus gasseri ATCC 19992", "experiment": "microbe, parasite or virus in culture", "type": "cell-based", "conditions": "ATCC19992"}, "[15]": {"tested_on": "Streptococcus agalactiae COH-1", "experiment": "microbe, parasite or virus in culture", "type": "cell-based", "conditions": "Streptococcus agalactiae, COH1"}, "[16]": {"tested_on": "lepB(P84L) P. aeruginosa PAO1", "experiment": "microbe, parasite or virus in culture", "type": "cell-based, Pseudomonas aeruginosa"}, "Bacillus subtilis 168": {"tested_on": "Bacillus subtilis 168", "experiment": "microbe, parasite or virus in culture", "type": "cell-based"}, "[17]": {"tested_on": "S. epidermidis PAS9002 (SPase S31P)", "type": "cell-based, Staphylococcus epidermidis", "conditions": "Ser to Pro mutation at position 31 of SpsIB"}, "Bacteroides fragilis": {"tested_on": "Bacteroides fragilis", "experiment": "microbe, parasite or virus in culture", "type": "cell-based"}, "Clostridium difficile": {"tested_on": "Clostridium difficile", "experiment": "microbe, parasite or virus in culture", "type": "cell-based", "conditions": "Clostridioides difficile"}, "[18]": {"tested_on": "Streptococcus pneumoniae R800", "experiment": "microbe, parasite or virus in culture", "type": "cell-based"}, "S. aureus Rosenbach 328": {"tested_on": "S. aureus Rosenbach 328", "experiment": "microbe, parasite or virus in culture", "type": "cell-based", "conditions": "Staphylococcus aureus; MRSA strain"}, "Yersinia pestis Kim+6": {"tested_on": "Yersinia pestis Kim+6", "experiment": "microbe, parasite or virus in culture", "type": "cell-based"}, "[19]": {"tested_on": "Klebsiella pneumoniae ATCC 43816", "experiment": "microbe, parasite or virus in culture", "type": "cell-based", "conditions": "ATCC43816"}, "Clostridium bolteae": {"tested_on": "Clostridium bolteae", "experiment": "microbe, parasite or virus in culture", "type": "cell-based", "conditions": "Enterocloster bolteae"}, "[20]": {"tested_on": "Rhodococcus opacus DSM 1069", "experiment": "microbe, parasite or virus in culture", "type": "cell-based"}, "[21]": {"tested_on": "Rhodococcus equi ATCC 6939", "experiment": "microbe, parasite or virus in culture", "type": "cell-based", "conditions": "Rhodococcus (subgen. Prescottella) equi, ATCC6939"}, "[22]": {"target": "full-length wild type S. aureus SPase (Pro-variant) (Staphylococcus aureus, UniProt P0A070)", "experiment": "Equilibrium binding, arylomycin fluorescence"}, "Staphylococcus aureus": {"tested_on": "Staphylococcus aureus", "type": "cell-based", "conditions": "several values = heterogeneity within different strains"}, "[23]": {"tested_on": "spsB(S29P) S. epidermidis RP62A", "experiment": "microbe, parasite or virus in culture", "type": "cell-based, Staphylococcus epidermidis"}, "[24]": {"tested_on": "Lactobacillus acidophilus ATCC 4356", "experiment": "microbe, parasite or virus in culture", "type": "cell-based", "conditions": "ATCC4356"}, "[25]": {"conditions": "Staphylococcus epidermidis, read-out: MIC"}, "[26]": {"conditions": "Table 3, P3 position derivatives, unit not given"}},
  "note": "Like-named read-outs stand apart in the source and are kept apart here.",
  "data": [
    {"compound": "CCCCCCCCCCCCCCCC(=O)N(C)[C@H](CO)C(=O)N[C@H](C)C(=O)NCC(=O)N(C)[C@@H]1C(=O)N[C@@H](C)C(=O)N[C@H](C(=O)O)Cc2ccc(O)c(c2)-c2cc1ccc2O", "note": "[Arylomycin C16, arylomycin C16]", "values": [
      {"measurement": "MIC", "setting": "Rhodococcus erythropolis", "result": 16, "unit": "µg/mL"},
      {"measurement": "Kd", "setting": "[1]", "result": "979 ± 69", "unit": "nM"},
      {"measurement": "Kd", "setting": "[2]", "result": "130 ± 53", "unit": "nM"},
      {"measurement": "MIC", "setting": "Chlamydia trachomatis", "result": 6, "unit": "µg/mL"},
      {"measurement": "MIC", "setting": "[3]", "result": 2, "unit": "µg/mL"},
      {"measurement": "MIC", "setting": "[4]", "result": "> 128", "unit": "µg/mL"},
      {"measurement": "MIC", "setting": "Enterococcus faecalis", "result": "> 64", "unit": "µg/mL"},
      {"measurement": "MIC", "setting": "[5]", "result": "> 64", "unit": "µg/mL"},
      {"measurement": "MIC", "setting": "[6]", "result": 2, "unit": "µg/mL"},
      {"measurement": "MIC", "setting": "[7]; Pseudomonas aeruginosa, PAO1, Resistant strain (wild type), read-out: MIC", "result": "> 64", "unit": "µg/mL"},
      {"measurement": "MIC", "setting": "[7]; Resistant strain (wild type)", "result": ">128", "unit": "µg/mL"},
      {"measurement": "MIC", "setting": "[8]; 'Phe or His' variant (temperature sensitive)", "result": 2, "unit": "µg/mL"},
      {"measurement": "MIC", "setting": "[8]; His variant (temperature sensitive)", "result": 4, "unit": "µg/mL"},
      {"measurement": "MIC", "setting": "[8]; Pro at SPase residue 84", "result": "> 256", "unit": "µg/mL"},
      {"measurement": "MIC", "setting": "[8]; all of the other amino acids at residue 84", "result": "≤ 16", "unit": "µg/mL"},
      {"measurement": "minimal inhibitory concentration (MIC)", "setting": "[9]", "result": 2},
      {"measurement": "MIC", "setting": "S. aureus COL", "result": 12, "unit": "µg/mL"},
      {"measurement": "MIC", "setting": "[10]", "result": 16, "unit": "µg/mL"},
      {"measurement": "MIC", "setting": "Clostridium perfringens", "result": "> 16", "unit": "µg/mL"},
      {"measurement": "MIC", "setting": "Prevotella copris", "result": "> 16", "unit": "µg/mL"},
      {"measurement": "minimal inhibitory concentration (MIC)", "setting": "[11]", "result": 4},
      {"measurement": "MIC", "setting": "[12]", "result": 0.25, "unit": "µg/mL"},
      {"measurement": "MIC", "setting": "[12]; listed as arylomycin C16", "result": 0.25, "unit": "µg/mL"},
      {"measurement": "MIC", "setting": "[12]; [25]", "result": 0.5, "unit": "µg/mL"},
      {"measurement": "minimal inhibitory concentration (MIC)", "setting": "[12]; [26]", "result": 0.25},
      {"measurement": "MIC", "setting": "[13]", "result": 16, "unit": "µg/mL"},
      {"measurement": "MIC", "setting": "[13]; Streptococcus pyogenes, M15448, read-out: MIC", "result": 8, "unit": "µg/mL"},
      {"measurement": "MIC", "setting": "[13]; listed as arylomycin A-C16", "result": 8, "unit": "µg/mL"},
      {"measurement": "MIC", "setting": "[14]", "result": "> 128", "unit": "µg/mL"},
      {"measurement": "MIC", "setting": "[15]", "result": "> 128", "unit": "µg/mL"},
      {"measurement": "MIC", "setting": "[16]; Pseudomonas aeruginosa, PAO1, Sensitive (genetically sensitized) strain, read-out: MIC", "result": 8, "unit": "µg/mL"},
      {"measurement": "minimal inhibitory concentration (MIC)", "setting": "[16]; [26]", "result": 4},
      {"measurement": "MIC", "setting": "Bacillus subtilis 168", "result": "> 128", "unit": "µg/mL"},
      {"measurement": "fold elevated MIC compared to the wild type strain", "setting": "[17]", "result": "greater than 256 fold"},
      {"measurement": "MIC", "setting": "Bacteroides fragilis", "result": "> 16", "unit": "µg/mL"},
      {"measurement": "MIC", "setting": "Clostridium difficile", "result": "> 16", "unit": "µg/mL"},
      {"measurement": "MIC", "setting": "[18]", "result": 16, "unit": "µg/mL"},
      {"measurement": "MIC", "setting": "[18]; Streptococcus pneumoniae, R800, read-out: MIC", "result": 8, "unit": "µg/mL"},
      {"measurement": "MIC", "setting": "[18]; listed as arylomycin A-C16", "result": 8, "unit": "µg/mL"},
      {"measurement": "MIC", "setting": "S. aureus Rosenbach 328", "result": 25, "unit": "µg/mL"},
      {"measurement": "MIC", "setting": "Yersinia pestis Kim+6", "result": 4, "unit": "µg/mL"},
      {"measurement": "MIC", "setting": "[19]", "result": "> 128", "unit": "µg/mL"},
      {"measurement": "MIC", "setting": "Clostridium bolteae", "result": "> 16", "unit": "µg/mL"},
      {"measurement": "MIC", "setting": "[20]", "result": 2, "unit": "µg/mL"},
      {"measurement": "MIC", "setting": "[20]; Rhodococcus opacus, DSM1069, read-out: MIC", "result": 1, "unit": "µg/mL"},
      {"measurement": "MIC", "setting": "[21]", "result": 16, "unit": "µg/mL"},
      {"measurement": "Kd", "setting": "[22]", "result": "1280 ± 278", "unit": "nM"},
      {"measurement": "MIC", "setting": "Staphylococcus aureus", "result": "16 to 32", "unit": "µg/mL"},
      {"measurement": "fold elevated MIC compared to the wild type strain", "setting": "[23]; Ser to Pro mutation at position 29 of SpsIB", "result": 32, "unit": "fold"},
      {"measurement": "MIC", "setting": "[23]; [25]", "result": 8, "unit": "µg/mL"},
      {"measurement": "MIC", "setting": "[24]", "result": "> 128", "unit": "µg/mL"}
    ]}
  ]
}
